Assay results reported in patent US20220184000A1, “USE OF CANNABIDIOL IN THE TREATMENT OF DRAVET SYNDROME” (priority 2019, published 2022).

Assays:
Format in all cases: in vivo
[1] = tested on: Scn1a^−/− mice; assay: Survival in Scn1a^−/− mice, Study I (acute model of Dravet syndrome); details: CBD-treated Scn1a^−/− mice; 100 mg/kg s.c. twice daily from P8; n=10; vehicle 15.5 days; Mantel-Cox p=0.003; FIG. 1B
Method: Following genotyping, animals were randomly divided into four groups WT vehicle-treated, WT CBD-treated, Scn1a^−/− vehicle-treated and Scn1a^−/− CBD-treated (n=10/group). They were injected subcutaneously twice daily with either CBD (100 mg/kg) or its vehicle (ethanol:Kolliphor®:0.9% saline=2:1:17) from P8 until P25 or death (whichever was earlier).
Animal suffering was minimised by employing a validated, welfare scoring system alongside a mathematical model to predict death. In this way, any animal for which the model predicted death could be sacrificed 0.5 day before enduring the maximal severity of the disease.
Additionally, surface temperature (ST) threshold was employed such that if the sum of the ST scores over the last 1.5 days, was equal to or greater than 3, the animal would be killed by cervical dislocation within 0.5 day.
In Study I, the welfare parameters were analysed using SPSS 24 (IBM SPSS Statistics®, UK), whilst survival data were analysed using GraphPad Prism 6 software (GraphPad Software, Inc., USA). Data obtained from welfare parameters were compared using a three-way ANOVA to observe the main effects of treatment, genotype and time, and their two-way and three-way interactions. […] All the data are expressed as mean±SEM. […]

[2] = tested on: Scn1a^+/− mice; assay: Accelerated rotarod test (motor function), Study II
Method: (§1) Here, Scn1a^+/− were randomly divided into two groups and subcutaneously injected with either CBD (100 mg/kg twice daily; n=12) or its vehicle (ethanol:Kolliphor®:0.9% saline=2:1:17; n=29) from P8 onwards until P52 or death (whichever was earlier).
Fine motor control in animals were assessed by the accelerated rotarod and static beam tests. Animals were habituated to the stationary rotarod for 2 min a day for 2 days. In the accelerated rotarod test each mouse was placed individually on a linearly accelerating rod (4-40 rpm over 5 minutes; LE8500, Letica Scientific Instruments, UK) and average latency to fall from the rod (maximum 300 seconds) was calculated from 3 consecutive trials (2 min interval between trials).
(§2) In Study II, the data were analysed in GraphPad Prism 6 software. Survival curves of Scn1a^+/− vehicle-treated and Scn1a^+/− CBD-treated group were compared using a Mantel-Cox test. […] Data obtained from rotarod, gait, social interaction (active interaction), EPM, sucrose preference, RAM (RME) tests were normally distributed and the differences between the three groups were analysed by one-way ANOVA. […] Parametric data are presented in scattered dot plot in the figures and are expressed as mean±SEM. Non-parametric data are presented in box plot in the figures and are expressed as median, min to max, and interquartile range (IQR). […]

[3] = tested on: Scn1a^+/− mice; assay: Gait test, Study II; details: CBD 100 mg/kg s.c. twice daily
Method: as §1
Gait test was conducted to assess the cerebellar function of the animals (Patel & Hillard, 2001). In this test, the hind paws of each mouse were marked with a non-toxic ink and the mouse was allowed to walk on a white paper (50×10 cm) placed on the floor of a custom-made plexiglass tunnel (50×10×10 cm). To obtain the left and right stride length, the distance between two ipsilateral paw prints was measured, whereas stride width was calculated from the distance between a footprint and its contralateral stride length at right angle (Wecker et al., 2013). The initial and last footprints were not considered in measurements. All the animals were habituated to the test procedures and the apparatus for 2 days prior to the test. On the day of test, two trials were conducted for each animal to obtain mean stride length (left or right) and width for that animal.
In Study II, the data were analysed in GraphPad Prism 6 software. Survival curves of Scn1a^+/− vehicle-treated and Scn1a^+/− CBD-treated group were compared using a Mantel-Cox test. The percentage of animals from the Scn1a^+/− vehicle-treated and Scn1a^+/− CBD-treated groups that survived until the end of the study (P52) were compared by Fisher's exact test. Further, data obtained from the comorbidity assessment were checked for normality by D'Agostino & Pearson omnibus normality test. Data obtained from rotarod, gait, social interaction (active interaction), EPM, sucrose preference, RAM (RME) tests were normally distributed and the differences between the three groups were analysed by one-way ANOVA. […] Parametric data are presented in scattered dot plot in the figures and are expressed as mean±SEM. Non-parametric data are presented in box plot in the figures and are expressed as median, min to max, and interquartile range (IQR). […]

[4] = tested on: Scn1a^+/− mice; assay: Social interaction test, Study II; details: CBD 100 mg/kg s.c. twice daily
Method: as §1
The social interaction test was conducted in the home cage of test mouse to assess the social behaviour of the animals (Sato, Mizuguchi, & Ikeda, 2013). On test day, cage mate(s) were removed from the home cage of the test mouse and the mouse remained in isolation for 15 minutes. A novel wild type mouse of same strain, same sex and similar weight to the test mouse was then introduced to the home cage of the test mouse. Activity was video recorded (Sony DCR-SX21E) for 10 minutes and the obtained video files were blinded at the end of all experiments. Time spent in active interactions (e.g. close following, sniffing, allogrooming/social grooming and mounting) and number of rearing (lifting the front paws on the air) occasions were coded offline using Observer XT 12 (Noldus, Netherlands). Aggressive behaviours were not considered as social interactions and were not coded. In this test, a reduced social interaction is considered as autistic-like behaviour (Sato et al., 2013), while increased rearing occasions is sign of defensive escapes (Kaplan et al., 2017).
as §2

## C=C(C)[C@@H]1CCC(C)=C[C@H]1c1c(O)cc(CCCCC)cc1O [CBD, cannabidiol]
[1]
  median survival: 16.25 days
[2]; WT vehicle, Scn1a^+/− vehicle, Scn1a^+/− CBD (100 mg/kg s.c. twice daily), p=0.44, FIG. 3A
  time spent on rod, accelerating rotarod, between the groups: no significant difference
[2]; conclusion from rotarod and static beam tests in Scn1a^+/− mice, chronic CBD 100 mg/kg s.c. twice daily
  effects on motor function (conclusion): no detrimental effects on motor function
[3]; p=0.17, FIG. 3E
  stride width between the three groups: no significant change
[3]; p=0.44, FIG. 3C
  left stride length between the three groups: no significant change
[3]; p=0.44, FIG. 3D
  right stride length between the three groups: no significant change
[4]; p=0.55
  rearing events, Scn1a^+/− CBD-treated versus WT vehicle-treated: No difference
[4]; statement describes vehicle group relative to CBD group (n=10), p=0.0003, FIG. 4A
  time spent on active interaction, Scn1a^+/− vehicle-treated compared to Scn1a^+/− CBD-treated: significantly less time
[4]; statement describes vehicle group relative to CBD group, p=0.0003, FIG. 4B
  number of rearing occasions, Scn1a^+/− vehicle-treated compared to Scn1a^+/− CBD-treated: significantly higher number of rearing occasions
